# Assays:
# MIN6N8 murine β-cells = test: ER stress (ERAI reporter of Xbp1-splicing / Xbp1 splicing) in MIN6N8 β-cells; type: cell-based; parameters: % Inhibition of ER Stress (Xbp1 splicing): concentration or dose not given beside the values; conditions: for induction of ER stress (ERAI reporter of Xbp1-splicing): 50 ng/mL cytokines, 24 hour
# Protocol: MIN6N8 cells are maintained in line with standard protocols. Cells are transfected with either the ERAI reporter plasmid (F-XBP1ΔDBD-Venus), or the ATF6-GFP plasmid (ADGENE), using LIPFECTAMINE 2000 according to the manufacturer's instructions.
# On induction of ER stress, splicing of […] mRNA by IRE1a results in the translation of Venus, but not an active form of XBP1. Fluorescence was measured (excitation: 485 nm; emission: 520 nm) using the POLARstar Omega plate reader and cells were treated 48 h after transfection. The results are normalized with Gapdh expression as fold of vehicle-treated control (Con) cells.
# Activation of ATF6 was assessed as follows: the area in pixels per square millimeter co-stained ATF6 and DAPI (blue and green), and total ATF6 staining (green) was determined in 5 fields of view for each section (n=6 for each condition) using IMAGEJ software version 1.45s. Data are presented as the percentage of ATF6 and DAPI co-fluorescence to the total ATF6 fluorescence. Phosphorylation of Ser-51 of eiF2 α was determined by an AlphaScreen assay as per the manufacturer's instructions (PERKIN-ELMER). The Griess reagent method was performed according to the manufacturer's instructions (MOLECULAR PROBES) to assess the intracellular levels of nitric oxide. 5-(and -6-)-carboxy-2,7-dichlorofluorescein diacetate (DCFDA) assay was used to determine the intracellular levels of H2O2 as previously described (Sakon et al., 2003). Cells were treated with glucose or recombinant cytokines at the concentrations indicated in the figure legends, or with 5 μM thapsigargin (SIGMA-ALDRICH) or 10 μg/mL tunicamycin (SIGMA-ALDRICH) or 0.1-0.5 mM Palmitate (SIGMA-ALDRICH) for the times indicated in the legends. ROS was […] using the dihydroethidium (DHE) fluorescent cell-permeable probe (SIGMA-ALDRICH). MIN6N8 cells plated at 2×10^6/mL were incubated with 3 μM DHE and subsequently treated with DMSO (control), 50 ng/mL IL-23 for 30 minutes±[…] IL-22 at the same time or 30 minutes prior to IL-23.
# To inhibit transcription factors the following specific inhibitors (and concentrations) were used:
# MIN6N8 cells were exposed to a panel of cytokines to determine the effect of each cytokine on ER stress. ER stress was measured using the above-described method. Specifically, the cells were exposed to either a 24 hour treatment of any one of […] glucose (hi glucose), 10 μM H2O2, 0.5 mM palmitic acid or 50 ng/mL cytokines; or a 6 hour treatment with 10 μg/mL tunicamycin or 5 μM thapsigargin.
# Experiments to assess ER and/or oxidative stress, and methods of qRT-PCT and/or quantifying gene expression were performed as described for Example 1. Xbp1 splicing is assessed by qRT-PCR, with normalization versus Gapdh, and expression presented as fold of vehicle-treated control cells.
# STAT3 phosphorylation = test: pStat3 staining in pancreatic islets vs liver, intestine and skin; type: in vivo, C57BL/6 mice; conditions: 30 min
# Protocol: Targeting to IL-22 to pancreas: Non-obese male C57BL/6 at 6-8 weeks of age. Each IL-22-GLP-1R ligand fusion protein or hIL-22 was administered i.p. at 256 ng/g of IL-22 and the molar equivalents for the individual fusion proteins (n=3 per regimen). IL-22-ScaB1 was administered at […]. Control mice received a PBS control i.p. injection only.
# To assess in vivo activation of the IL-22 receptor signaling pathway, after 30 min the mice were sacrificed and the following tissues were snap frozen and sections were prepared for each mouse: pancreas, skin (ear, tail), colon (rolled), and liver. Sections were stained by immunofluorescence for phosphorylated STAT3 using the Phospho-Stat3 (Tyr705) (D3A7) antibody.
# Murine MIN6N8 cells = test: ERAI-sXBP1 reporter ER stress in MIN6N8 cells with 0.5 mM palmitate; type: cell-based; conditions: 24 hours
# Protocol: Cell culture: Murine MIN6N8 cells were tested negative for mycoplasma. Cells were routinely cultured in phenol-red free DMEM (Life Technologies) containing 25 mM glucose (3.4 g/L sodium bicarbonate, 50 U/mL penicillin and streptomycin, 71.5 μM β-mercaptoethanol and 10% heat inactivated fetal bovine serum) and transferred to DMEM as above with 5.5 mM glucose 48 h prior to experimentation. Human LS174T cells were cultured in DMEM containing 10% heat-inactivated fetal bovine serum, 50 U mL^−1 penicillin and streptomycin.
# ER Stress Measurement: MIN6N8 cells were transfected with the ERAI reporter plasmid (F-XBP1ΔDBD-venus, using Lipofectamine 2000 according to the manufacturer's instructions. For ERAI there was negligible fluorescence in the absence of ER stressors, but upon induction of ER stress, splicing of XBP1 mRNA by IRE1a results in the translation of Venus but not an active form of XBP1. Fluorescence was measured (excitation: 485 nm; emission: 520 nm) using a POLARstar Omega plate reader and cells were treated 48 h after transfection. […] After 24 h, ERAI-sXBP1 GFP reporter fluorescence was measured.
molecule,measurement,setting,value
"N[C@@H](CCC(=O)N[C@@H](CS)C(=O)NCC(=O)O)C(=O)O [GSH, reduced glutathione]",% Inhibition of ER Stress (Xbp1 splicing),MIN6N8 murine β-cells; ER stress induced by IFNγ,15%
same,% Inhibition of ER Stress (Xbp1 splicing),MIN6N8 murine β-cells; ER stress induced by IL-1β,16%
same,% Inhibition of ER Stress (Xbp1 splicing),MIN6N8 murine β-cells; ER stress induced by IL-17A,0%
same,% Inhibition of ER Stress (Xbp1 splicing),MIN6N8 murine β-cells; ER stress induced by IL-23,87%
same,% Inhibition of ER Stress (Xbp1 splicing),MIN6N8 murine β-cells; ER stress induced by IL-24,6%
same,% Inhibition of ER Stress (Xbp1 splicing),MIN6N8 murine β-cells; ER stress induced by IL-33,13%
same,% Inhibition of ER Stress (Xbp1 splicing),MIN6N8 murine β-cells; ER stress induced by MIP-2α,7%
"CNC(=N)NCCC[C@H](N)C(=O)O [L-NMMA, N^G-Methyl-L-arginine]",% Inhibition of ER Stress (Xbp1 splicing),MIN6N8 murine β-cells; ER stress induced by IFNγ,87%
same,% Inhibition of ER Stress (Xbp1 splicing),MIN6N8 murine β-cells; ER stress induced by IL-1β,93%
same,% Inhibition of ER Stress (Xbp1 splicing),MIN6N8 murine β-cells; ER stress induced by IL-17A,83%
same,% Inhibition of ER Stress (Xbp1 splicing),MIN6N8 murine β-cells; ER stress induced by IL-23,78%
same,% Inhibition of ER Stress (Xbp1 splicing),MIN6N8 murine β-cells; ER stress induced by IL-24,92%
same,% Inhibition of ER Stress (Xbp1 splicing),MIN6N8 murine β-cells; ER stress induced by IL-33,90%
same,% Inhibition of ER Stress (Xbp1 splicing),MIN6N8 murine β-cells; ER stress induced by MIP-2α,95%
IL-1β: ER stress-inducing cytokine,induction of ER stress (ERAI reporter of Xbp1-splicing),MIN6N8 murine β-cells,lower stress response
IL-17A: ER stress-inducing cytokine,induction of ER stress (ERAI reporter of Xbp1-splicing),MIN6N8 murine β-cells,lower stress response
MIP-2α: ER stress-inducing chemokine,induction of ER stress (ERAI reporter of Xbp1-splicing),MIN6N8 murine β-cells,lower stress response
superoxide dismutase [SOD1],% Inhibition of ER Stress (Xbp1 splicing),MIN6N8 murine β-cells; ER stress induced by IFNγ,74%
same,% Inhibition of ER Stress (Xbp1 splicing),MIN6N8 murine β-cells; ER stress induced by IL-1β,96%
same,% Inhibition of ER Stress (Xbp1 splicing),MIN6N8 murine β-cells; ER stress induced by IL-17A,65%
same,% Inhibition of ER Stress (Xbp1 splicing),MIN6N8 murine β-cells; ER stress induced by IL-23,95%
same,% Inhibition of ER Stress (Xbp1 splicing),MIN6N8 murine β-cells; ER stress induced by IL-24,59%
same,% Inhibition of ER Stress (Xbp1 splicing),MIN6N8 murine β-cells; ER stress induced by IL-33,74%
same,% Inhibition of ER Stress (Xbp1 splicing),MIN6N8 murine β-cells; ER stress induced by MIP-2α,88%
"IL-24: ER stress-inducing cytokine (protein, UniProt Q13007 52-206, looked up) Interleukin-24: QEFHFGPCQVKGVVPQKLWEAFWAVKDTMQAQDNITSARLLQQEVLQNVSDAESCYLVHTLLEFYLKTVFKNYHNRTVEVRTLKSFSTLANNFVLIVSQLQPSQENEMFSIRDSAHRRFLLFRRAFKQLDVEAALTKALGEVDILLTWMQKFYKL",induction of ER stress (ERAI reporter of Xbp1-splicing),MIN6N8 murine β-cells,potent inducers of ER stress
"IL-10: cytokine that inhibits ER stress (protein, UniProt P22301 19-178, looked up) Interleukin-10: SPGQGTQSENSCTHFPGNLPNMLRDLRDAFSRVKTFFQMKDQLDNLLLKESLLEDFKGYLGCQALSEMIQFYLEEVMPQAENQDPDIKAHVNSLGENLKTLRLRLRRCHRFLPCENKSKAVEQVKNAFNKLQEKGIYKAMSEFDIFINYIEAYMTMKIRN",inhibition of ER stress initiated by cytokines or tunicamycin,MIN6N8 murine β-cells; pair-wise combinations of cytokines,inhibit ER stress
"IL-33: ER stress-inducing cytokine (protein, UniProt O95760 1-270, looked up) Interleukin-33: MKPKMKYSTNKISTAKWKNTASKALCFKLGKSQQKAKEVCPMYFMKLRSGLMIKKEACYFRRETTKRPSLKTGRKHKRHLVLAACQQQSTVECFAFGISGVQKYTRALHDSSITGISPITEYLASLSTYNDQSITFALEDESYEIYVEDLKKDEKKDKVLLSYYESQHPSNESGDGVDGKMLMVTLSPTKDFWLHANNKEHSVELHKCEKPLPDQAFFVLHNMHSNCVSFECKTDPGVFIGVKDNHLALIKVDSSENLCTENILFKLSET",induction of ER stress (ERAI reporter of Xbp1-splicing),MIN6N8 murine β-cells,potent inducers of ER stress
"IL-23: ER stress-inducing cytokine (protein, UniProt Q9NPF7 20-189; P29460 23-328, looked up) Interleukin-23 subunit alpha: RAVPGGSSPAWTQCQQLSQKLCTLAWSAHPLVGHMDLREEGDEETTNDVPHIQCGDGCDPQGLRDNSQFCLQRIHQGLIFYEKLLGSDIFTGEPSLLPDSPVGQLHASLLGLSQLLQPEGHHWETQQIPSLSPSQPWQRLLLRFKILRSLQAFVAVAARVFAHGAATLSP Interleukin-12 subunit beta: IWELKKDVYVVELDWYPDAPGEMVVLTCDTPEEDGITWTLDQSSEVLGSGKTLTIQVKEFGDAGQYTCHKGGEVLSHSLLLLHKKEDGIWSTDILKDQKEPKNKTFLRCEAKNYSGRFTCWWLTTISTDLTFSVKSSRGSSDPQGVTCGAATLSAERVRGDNKEYEYSVECQEDSACPAAEESLPIEVMVDAVHKLKYENYTSSFFIRDIIKPDPPKNLQLKPLKNSRQVEVSWEYPDTWSTPHSYFSLTFCVQVQGKSKREKKDRVFTDKTSATVICRKNASISVRAQDRYYSSSWSEWASVPCS",induction of ER stress (ERAI reporter of Xbp1-splicing),MIN6N8 murine β-cells,potent inducers of ER stress
"IL-22-ScaB1: IL-22-single chain antibody construct targeting a β-cell antigen; scFv-cytokine fusion protein with His- and myc-tag (protein, His-ScaB1 scFv-IL22 human-myc, IL-22-single chain antibody construct targeting a β-cell antigen; scFv-cytokine fusion protein with His- and myc-tag) HHHHHHEVQLLESGGGLVQPGGSLRLSCAASGFTFSSYAMSWVRQAPGKGLEWVSSITAEGTHTWYADSVKGRFTISRDNSKNTLYLQMNSLRAEDTAVYYCAKTSYRFDYWGQGTLVTVSSGGGGSGGGGSGGGGSDIQMTQSPSSLSASVGDRVTITCRASQSISSYLNWYQQKPGKAPKLLIYKASRLQSGVPSRFSGSGSGTDFTLTISSLQPEDFATYYCQQKWDPPRTFGQGTKVEIKRSGGGGSAPISSHCRLDKSNFQQPYITNRTFMLAKEASLADNNTDVRLIGEKLFHGVSMSERCYLMKQVLNFTLEEVLFPQSDRFQPYMQEVVPFLARLSNRLSTCHIEGDDLHIQRNVQKLKDTVKKLGESGEIKAIGELDLLFMSLRNACIEQKLISEEDLN","pStat3 ratio pancreatic islets vs liver, skin or intestine relative to human IL-22",STAT3 phosphorylation; 0.96 nmoles/g,not greater than for native human IL-22
same,"pStat3 ratio pancreatic islets vs intestine, fold change relative to human IL-22",STAT3 phosphorylation; 15.4 nmoles/g,420 fold
same,"pStat3 ratio pancreatic islets vs liver, fold change relative to human IL-22",STAT3 phosphorylation; 15.4 nmoles/g,120 fold
same,"pStat3 ratio pancreatic islets vs skin, fold change relative to human IL-22",STAT3 phosphorylation; 15.4 nmoles/g,110 fold
same,ER stress caused by the protein alone,"Murine MIN6N8 cells; 15.4 nM, no palmitate",did not cause ER stress
same,potency compared to the native human IL-22 in reducing ER stress,Murine MIN6N8 cells; 0.5 mM palmitate,< 50%
same,protection from palmitate-induced ER stress,"Murine MIN6N8 cells; co-treated with 0.5 mM palmitate, increasing concentrations",reduced ER stress induced by palmitate
"IFN-γ: ER stress-inducing cytokine (protein, UniProt P01579 24-161, looked up) Interferon gamma: QDPYVKEAENLKKYFNAGHSDVADNGTLFLGILKNWKEESDRKIMQSQIVSFYFKLFKNFKDDQSIQKSVETIKEDMNVKFFNSNKKKRDDFEKLTNYSVTDLNVQRKAIHELIQVMAELSPAAKTGKRKRSQMLFRG",induction of ER stress (ERAI reporter of Xbp1-splicing),MIN6N8 murine β-cells,lower stress response

# Reference: patent US10695406B2, “Modulation of cellular stress using a B-cell oxidative and/or endoplasmic reticulum stress inhibitor and a targeting agent” (THE UNIVERSITY OF QUEENSLAND, priority 2014, dated 2020)
